{
  "source": "ChEMBL document CHEMBL4052645",
  "about": "“Discovery of potent and efficacious pyrrolopyridazines as dual JAK1/3 inhibitors” (Bioorg Med Chem Lett, 2017)",
  "key": {"[1]": {"biological_target": "Serine/threonine-protein kinase DCLK3 (Homo sapiens) (UniProt Q9C098)", "assay": "Inhibition of wild-type human partial length DCAMKL3 (E140 to V628 residues) expressed in bacterial expression system assessed as residual activity at 50 nM by Kinomescan method relative to control"}, "[2]": {"biological_target": "Hormonally up-regulated neu tumor-associated kinase (Homo sapiens) (UniProt P57058)", "assay": "Inhibition of wild-type human partial length HUNK (A31 to K354 residues) expressed in bacterial expression system assessed as residual activity at 50 nM by Kinomescan method relative to control"}, "[3]": {"biological_target": "Tyrosine-protein kinase Srms (Homo sapiens) (UniProt Q9H3Y6)", "assay": "Inhibition of wild-type human partial length SRMS (L208 to P488 residues) expressed in mammalian expression system assessed as residual activity at 50 nM by Kinomescan method relative to control"}, "[4]": {"biological_target": "Serine/threonine-protein kinase MAK (Homo sapiens) (UniProt P20794)", "assay": "Inhibition of wild-type human partial length MAK (M1 to P314 residues) expressed in bacterial expression system assessed as residual activity at 50 nM by Kinomescan method relative to control"}, "[5]": {"biological_target": "Myosin light chain kinase 2, skeletal/cardiac muscle (Homo sapiens) (UniProt Q9H1R3)", "assay": "Inhibition of wild-type human partial length SKMLCK (D258 to K570 residues) expressed in bacterial expression system assessed as residual activity at 50 nM by Kinomescan method relative to control"}, "[6]": {"biological_target": "Membrane-associated tyrosine- and threonine-specific cdc2-inhibitory kinase (Homo sapiens) (UniProt Q99640)", "assay": "Inhibition of wild-type human partial length MYT1 (A88 to G366 residues) expressed in bacterial expression system assessed as residual activity at 50 nM by Kinomescan method relative to control"}, "[7]": {"biological_target": "Phosphorylase b kinase gamma catalytic chain, skeletal muscle/heart isoform (Homo sapiens) (UniProt Q16816)", "assay": "Inhibition of wild-type human full length PHKG1 (M1 to Y387 residues) expressed in bacterial expression system assessed as residual activity at 50 nM by Kinomescan method relative to control"}, "[8]": {"biological_target": "Phosphatidylinositol 3-kinase C2 domain-containing subunit gamma (Homo sapiens) (UniProt O75747)", "assay": "Inhibition of wild-type human partial length PI3KC2G (M1 to I1446 residues) expressed in mammalian expression system assessed as residual activity at 50 nM by Kinomescan method relative to control"}, "[9]": {"biological_target": "Phosphatidylinositol 4,5-bisphosphate 3-kinase catalytic subunit gamma isoform (Homo sapiens) (UniProt P48736)", "assay": "Inhibition of wild-type human partial length PI3KCG (S144 to A1102 residues) expressed in mammalian expression system assessed as residual activity at 50 nM by Kinomescan method relative to control"}, "[10]": {"biological_target": "LIM domain kinase 2 (Homo sapiens) (UniProt P53671)", "assay": "Inhibition of wild-type human full length LIMK2 (M1 to P638 residues) expressed in bacterial expression system assessed as residual activity at 50 nM by Kinomescan method relative to control"}, "[11]": {"biological_target": "Serine/threonine-protein kinase pim-1 (Homo sapiens) (UniProt P11309)", "assay": "Inhibition of wild-type human partial length PIM1 (A15 to K313 residues) expressed in bacterial expression system assessed as residual activity at 50 nM by Kinomescan method relative to control"}, "[12]": {"biological_target": "LIM domain kinase 1 (Homo sapiens) (UniProt P53667)", "assay": "Inhibition of wild-type human full length LIMK1 (M1 to D647 residues) expressed in bacterial expression system assessed as residual activity at 50 nM by Kinomescan method relative to control"}, "[13]": {"biological_target": "Discoidin domain-containing receptor 2 (Homo sapiens) (UniProt Q16832)", "assay": "Inhibition of wild-type human partial length DDR2 (V555 to E855 residues) expressed in mammalian expression system assessed as residual activity at 50 nM by Kinomescan method relative to control"}, "[14]": {"biological_target": "Serine/threonine-protein kinase Nek7 (Homo sapiens) (UniProt Q8TDX7)", "assay": "Inhibition of wild-type human full length NEK7 (M1 to S302 residues) expressed in bacterial expression system assessed as residual activity at 50 nM by Kinomescan method relative to control"}, "[15]": {"biological_target": "Uncharacterized serine/threonine-protein kinase SBK3 (Homo sapiens) (UniProt P0C264)", "assay": "Inhibition of wild-type human partial length SGK110 (L22 to R329 residues) expressed in bacterial expression system assessed as residual activity at 50 nM by Kinomescan method relative to control"}, "[16]": {"biological_target": "Serine/threonine-protein kinase TAO1 (Homo sapiens) (UniProt Q7L7X3)", "assay": "Inhibition of wild-type human partial length TAO1 (M1 to A320 residues) expressed in mammalian expression system assessed as residual activity at 50 nM by Kinomescan method relative to control"}, "[17]": {"biological_target": "Serine/threonine-protein kinase PAK 1 (Homo sapiens) (UniProt Q13153)", "assay": "Inhibition of wild-type human partial length PAK1 (S149 to H545 residues) expressed in bacterial expression system assessed as residual activity at 50 nM by Kinomescan method relative to control"}, "[18]": {"biological_target": "Casein kinase I isoform gamma-1 (Homo sapiens) (UniProt Q9HCP0)", "assay": "Inhibition of wild-type human partial length CK1G1 (T15 to S353 residues) expressed in bacterial expression system assessed as residual activity at 50 nM by Kinomescan method relative to control"}, "[19]": {"biological_target": "Dual specificity protein kinase CLK2 (Homo sapiens) (UniProt P49760)", "assay": "Inhibition of wild-type human partial length CLK2 (D144 to R498 residues) expressed in bacterial expression system assessed as residual activity at 50 nM by Kinomescan method relative to control"}, "[20]": {"biological_target": "Aurora kinase A (Homo sapiens) (UniProt O14965)", "assay": "Inhibition of wild-type human partial length AURA (E122 to K401 residues) expressed in mammalian expression system assessed as residual activity at 50 nM by Kinomescan method relative to control"}, "Mus musculus": {"test_system": "Mus musculus", "assay": "In vivo inhibition of JAK1/JAK3 in Balb/c mouse assessed as reduction in IL15-induced STAT5 phosphorylation at […], po after 4 hrs", "format": "functional, organism-based"}, "[21]": {"biological_target": "Tyrosine-protein kinase Yes (Homo sapiens) (UniProt P07947)", "assay": "Inhibition of wild-type human partial length YES (T257 to L543 residues) expressed in bacterial expression system assessed as residual activity at 50 nM by Kinomescan method relative to control"}, "[22]": {"biological_target": "Ephrin type-A receptor 6 (Homo sapiens) (UniProt Q9UF33)", "assay": "Inhibition of wild-type human partial length EPHA6 (Y700 to E1046 residues) expressed in bacterial expression system assessed as residual activity at 50 nM by Kinomescan method relative to control"}, "[23]": {"biological_target": "Mitogen-activated protein kinase 7 (Homo sapiens) (UniProt Q13164)", "assay": "Inhibition of wild-type human partial length ERK5 (M1 to A409 residues) expressed in bacterial expression system assessed as residual activity at 50 nM by Kinomescan method relative to control"}, "[24]": {"biological_target": "Ephrin type-B receptor 4 (Homo sapiens) (UniProt P54760)", "assay": "Inhibition of wild-type human partial length EPHB4 (H585 to G892 residues) expressed in bacterial expression system assessed as residual activity at 50 nM by Kinomescan method relative to control"}},
  "data": [
    {"smiles": "COc1ccc(-c2cc3c(N[C@@H]4CC[C@](C)(N)C4(C)C)c(C(N)=O)cnn3c2)cn1", "values": [
      {"measurement": "Activity", "setting": "[1]", "result": 64, "unit": "%"},
      {"measurement": "Activity", "setting": "[2]", "result": 100, "unit": "%"},
      {"measurement": "Activity", "setting": "[3]", "result": 94, "unit": "%"},
      {"measurement": "Activity", "setting": "[4]", "result": 100, "unit": "%"},
      {"measurement": "Activity", "setting": "[5]", "result": 100, "unit": "%"},
      {"measurement": "Activity", "setting": "[6]", "result": 100, "unit": "%"},
      {"measurement": "Activity", "setting": "[7]", "result": 100, "unit": "%"},
      {"measurement": "Activity", "setting": "[8]", "result": 100, "unit": "%"},
      {"measurement": "Activity", "setting": "[9]", "result": 100, "unit": "%"},
      {"measurement": "Activity", "setting": "[10]", "result": 100, "unit": "%"},
      {"measurement": "Activity", "setting": "[11]", "result": 93, "unit": "%"},
      {"measurement": "Activity", "setting": "[12]", "result": 100, "unit": "%"},
      {"measurement": "Activity", "setting": "[13]", "result": 100, "unit": "%"},
      {"measurement": "Activity", "setting": "[14]", "result": 100, "unit": "%"},
      {"measurement": "Activity", "setting": "[15]", "result": 62, "unit": "%"},
      {"measurement": "Activity", "setting": "[16]", "result": 59, "unit": "%"},
      {"measurement": "Activity", "setting": "[17]", "result": 96, "unit": "%"},
      {"measurement": "Activity", "setting": "[18]", "result": 100, "unit": "%"},
      {"measurement": "Activity", "setting": "[19]", "result": 71, "unit": "%"},
      {"measurement": "Activity", "setting": "[20]", "result": 100, "unit": "%"},
      {"measurement": "EC50", "setting": "Mus musculus", "result": 0.067, "unit": "µM"},
      {"measurement": "Activity", "setting": "[21]", "result": 94, "unit": "%"},
      {"measurement": "Activity", "setting": "[22]", "result": 95, "unit": "%"},
      {"measurement": "Activity", "setting": "[23]", "result": 100, "unit": "%"},
      {"measurement": "Activity", "setting": "[24]", "result": 96, "unit": "%"}
    ]},
    {"smiles": "CC1(C)[C@H](Nc2c(C(N)=O)cnn3cc(-c4ccccc4)cc23)CC[C@]1(C)N", "values": [
      {"measurement": "Activity", "setting": "[1]", "result": 39, "unit": "%"},
      {"measurement": "Activity", "setting": "[2]", "result": 65, "unit": "%"},
      {"measurement": "Activity", "setting": "[3]", "result": 64, "unit": "%"},
      {"measurement": "Activity", "setting": "[4]", "result": 100, "unit": "%"},
      {"measurement": "Activity", "setting": "[5]", "result": 90, "unit": "%"},
      {"measurement": "Activity", "setting": "[6]", "result": 79, "unit": "%"},
      {"measurement": "Activity", "setting": "[7]", "result": 81, "unit": "%"},
      {"measurement": "Activity", "setting": "[8]", "result": 100, "unit": "%"},
      {"measurement": "Activity", "setting": "[9]", "result": 100, "unit": "%"},
      {"measurement": "Activity", "setting": "[10]", "result": 92, "unit": "%"},
      {"measurement": "Activity", "setting": "[11]", "result": 96, "unit": "%"},
      {"measurement": "Activity", "setting": "[12]", "result": 67, "unit": "%"},
      {"measurement": "Activity", "setting": "[13]", "result": 100, "unit": "%"},
      {"measurement": "Activity", "setting": "[14]", "result": 100, "unit": "%"},
      {"measurement": "Activity", "setting": "[15]", "result": 41, "unit": "%"},
      {"measurement": "Activity", "setting": "[16]", "result": 54, "unit": "%"},
      {"measurement": "Activity", "setting": "[17]", "result": 88, "unit": "%"},
      {"measurement": "Activity", "setting": "[18]", "result": 92, "unit": "%"},
      {"measurement": "Activity", "setting": "[19]", "result": 69, "unit": "%"},
      {"measurement": "Activity", "setting": "[20]", "result": 88, "unit": "%"},
      {"measurement": "EC50", "setting": "Mus musculus", "result": 0.125, "unit": "µM"},
      {"measurement": "Activity", "setting": "[21]", "result": 89, "unit": "%"},
      {"measurement": "Activity", "setting": "[22]", "result": 100, "unit": "%"},
      {"measurement": "Activity", "setting": "[23]", "result": 96, "unit": "%"},
      {"measurement": "Activity", "setting": "[24]", "result": 99, "unit": "%"}
    ]}
  ]
}
